Literature values, collected in patent US11603489B2, “Method for inhibiting water permeation in an extraction well of a hydrocarbon oil from an underground reservoir” (priority 2016, dated 2023).
Read-outs that look alike come from different tables or passages of the source.

Key:
[1] = temperature at which the initiator has a half-life of 10 hours
[2] = not given; remark: listed apart in the source
[3] = distribution coefficient between water and 1-octanol
[4] = temperature at which the initiator has a half-life of 10 hours, in benzene

Structure (SMILES) | T1/2(10 h) in water [1] [°C] | Log P octanol/water [3] | also measured
CC(C)(N=NC(C)(C)C(=O)NC(CO)(CO)CO)C(=O)NC(CO)(CO)CO [VA080, 2,2′-Azobis{2-methyl-N-[1,1-bis(hydroxymethyl)-2-hydroxyethyl]propionamide}] | 80 | – | Log P octanol/water: < 0
O.O.O=S(=O)([O-])CO.[Na+] [hydroxymethanesulfonic acid monosodium salt dihydrate] | 60 | < 0 | –
CCC(C)(N=NC(C)(CC)C(=N)N1CCCC1)C(=N)N1CCCC1.Cl.Cl (stereo not drawn) [VA-067, 2,2′-Azobis(1-imino-1-pyrrolidine-2-ethylpropane)-dihydrochloride] | 67 | – | –
CCCCNC(=O)C(C)(C)N=NC(C)(C)C(=O)NCCCC [VAm-110, 2,2′-azobis(N-butyl-2-methylpropionamide)] | – | – | T1/2(10 h) in benzene [2]: 110 °C; Log P octanol/water: > 0
CC(C)(N=NC(C)(C)C1=NCCN1CCO)C1=NCCN1CCO.Cl.Cl [VA-060, 2,2′-Azobis{2-[1-(2-hydroxyethyl)-2-imidazolinyl]propane}-dihydrochloride] | 60 | < 0 | –
C=CCNC(=O)C(C)(C)N=NC(C)(C)C(=O)NCC=C [VF-096, 2,2′-azobis[N-(2-propenyl)-2-methylpropionamide]] | – | – | T1/2(10 h) in benzene [2]: 96 °C; Log P octanol/water: > 0
CC(C)(N=NC(C)(C)C1=NCCN1)C1=NCCN1.O.O.O=S(=O)(O)O.O=S(=O)(O)O [VA-046B, 2,2′-Azobis[2-(2-imidazolin-2-yl)propane]disulfate dihydrate] | 47 | – | –
CC(C)(C)OOC(=O)c1ccccc1 [tert-butyl peroxybenzoate] | – | > 0 | T1/2(10 h) in benzene [2, 4]: 73 °C
O=S(=O)([O-])OOS(=O)(=O)[O-].[K+].[K+] [potassium persulfate] | 65 | – | –
CC(C)(C#N)N=NC(N)=O [Composition V-30, 1-[(1-cyano-1-methylethyl)azo]formamide] | – | > 0 | T1/2(10 h) in benzene [2, 4]: 104 °C
N.N.O=S(=O)(O)OOS(=O)(=O)O [ammonium persulfate] | 65 | – | –
CC(C)(N=NC(C)(C)C(=O)NC1CCCCC1)C(=O)NC1CCCCC1 [VAm-111, 2,2′-azobis(N-cyclohexyl-2-methylpropionamide)] | – | – | T1/2(10 h) in benzene [2]: 111 °C; Log P octanol/water: > 0
CC(C)(N=NC(C)(C)C(=O)NCCO)C(=O)NCCO [VA086, 2,2′-Azobis[2-methyl-N-(2-hydroxyethyl)propionamide]] | 87 | – | –
O=C(OOC(=O)c1ccccc1)c1ccccc1 [benzoyl peroxide] | – | > 0 | –
CCCCCCCCCCCC(=O)OOC(=O)CCCCCCCCCCC [lauroyl peroxide] | – | > 0 | T1/2(10 h) in benzene [2, 4]: 75 °C
CC(C#N)(CCC(=O)O)N=NC(C)(C#N)CCC(=O)O (stereo not drawn) [4,4′-Azobis(4-cyanovaleric acid)] | 50 | – | –
CC(C)(N=NC(C)(C)C1=NCCN1)C1=NCCN1 [VA-061, 2,2′-Azobis[2-(2-imidazolin-2-yl)propane]] | 61 | – | –
CC(C)(N=NC(C)(C)C1=NCCN1)C1=NCCN1.Cl.Cl [VA-044, 2,2′-Azobis[2-(2-imidazolin-2-yl)propane]dihydrochloride] | 44 | – | –
CC(C)(OOC(C)(C)c1ccccc1)c1ccccc1 [dicumyl peroxide] | – | > 0 | T1/2(10 h) in benzene [2, 4]: 75 °C
CCC(C)(C#N)N=NC(C)(C#N)CC (stereo not drawn) [Composition V-59, 2,2′-azobis(2-methylbutyronitrile)] | – | > 0 | –
CC(C)(N=NC(C)(C)C(=N)NCCC(=O)O)C(=N)NCCC(=O)O.O.O.O.O [VA-057, 2,2′-Azobis[N-(2-carboxyethyl)-2-methylpropionamidine]tetrahydrate] | 57 | < 0 | –
O=S(=O)([O-])OOS(=O)(=O)[O-].[Na+].[Na+] [sodium persulfate] | 65 | – | –
CC(C)(C)OOC(C)(C)C [tert-butyl peroxide] | – | > 0 | T1/2(10 h) in benzene [2, 4]: 70 °C
CC(C)(N=NC(C)(C)C(=N)N)C(=N)N.Cl.Cl [2,2′-Azobis(2-methylpropionamidine) dihydrochloride] | – | – | T1/2(10 h) in water ([1]; dihydrochloride): 55 °C
